From US20240336583A1, “BENZO-RING-CONTAINING DERIVATIVE, AND PREPARATION METHOD THEREFOR AND USE THEREOF” (SHUJING BIOPHARMA CO., LTD, priority 2021, published 2024)

Key:
Type in all cases: in vivo
ICR mice [1] = assay: Mouse righting reflex test (ED50, sequential method, tail vein bolus); conditions: for Symptoms in test animals in ED50 test: after tail vein administration; for ED50 (median effective dose: dose required to cause 50% of the mice to lose the righting reflex) / ED50: tail vein bolus within 10 seconds, sequential method, AOT425 software; for ED50: Mus musculus, read-out: ED50 (median effective dose: dose required to cause 50% of the mice to lose the righting reflex)
Procedure: The ED50 value and LD50 value of the compound of the present invention were measured using a sequential method. The TI (therapeutic index) of the drug was calculated.
(§1) SPF grade ICR mice (Pizhou Oriental Breeding Co., Ltd.), 22-28 g, 15 mice/group. All mice received 3 days of quarantine and acclimation and were transferred from the feeding room to the laboratory for acclimation 1 h prior to the experiment.
(§2) The test compound was dissolved in 20% fat emulsion or purified water to prepare a 5 mg/ml drug liquid.
(§3) During the test, firstly a mouse was dosed at the tail vein, and the bolus injection was completed within 10 seconds. […] Finally, the AOT425 Statpm software was used to calculate the ED50 (median effective dose: the dose required to cause 50% of the mice to lose the righting reflex by the test) and LD50 (median lethal dose: the dose required to cause 50% of the mice to die by the test) values. The formula for TI (therapeutic index) was: TI=LD50/ED50.

ICR mice [2] = assay: Mouse LD50 test (sequential method, tail vein bolus); conditions: TI=LD50/ED50, ICR mice, tail vein
Procedure: (§4) The ED50 value and LD50 value of the compound of the present invention were measured using a sequential method. The TI (therapeutic index) of the drug was calculated. The animal symptoms in the experimental process were observed, and the drug effect, safety and side effects of the compound of the present invention were examined.
as §1, §2, §3

[3] = as above; conditions: mouse, in vivo, intravenous; ICR mice, tail vein bolus within 10 seconds, sequential method, AOT425 software; read-out: LD50 (median lethal dose: dose required to cause 50% of the mice to die)
Procedure: as §4, §1, §2, §3

Row | SMILES | Symptoms in test animals in ED50 test (ICR mice [1]) | ED50 (median effective dose: dose required to cause 50% of the mice to lose the righting reflex) (ICR mice [1]) [mg/kg] | ED50 (ICR mice [1]) [mg/kg] | TI (therapeutic index) (ICR mice [2]) | LD50 [3] [mg/kg]
1 | CC1COc2c(F)cc(C(C)C3CC3)c(OCOP(=O)([O-])[O-])c21.[Na+].[Na+] (single isomer, unassigned) [Example 10A1, sodium (5-(1-cyclopropyl)-7-fluoro-3-methyl-2,3-dihydrobenzofuran-4-yl) oxymethyl phosphate] | The animals' condition was stable after | – | – | – | –
2 | CC1COc2c(F)cc(C(C)C3CC3)c(O)c21 (single isomer, unassigned) [Example 11A1, 5-(1-cyclopropylethyl)-7-fluoro-3-methyl-2,3-dihydrobenzofuran-4-ol] | The animals' condition was stable after | 4.0 | – | – | –
3 | CC(C)c1cccc(C(C)C)c1O [Propofol, reference compound] | Some animals exhibited body twitching and | – | 12.9 | 4.3 | 55.9
4 | CC1COc2c(F)cc(C(C)C3CC3)c(O)c21 (single isomer, unassigned) [Example 4, 5-(1-cyclopropylethyl)-7-fluoro-3-methyl-2,3-dihydrobenzofuran-4-ol] | The animals' condition was stable after | 8.9 | – | 7.0 | 62.5
5 | CC(C)c1cccc(C(C)C)c1OCOP(=O)(O)O [Fospropofol sodium, reference compound] | – | – | 112 | – | –
